Measurements: patent US7608636B2, “Medicines for treatment and prevention of neurogenic pain” (Hamilton Pharmaceuticals, Inc., priority 2000, dated 2009)

How the values were obtained:
ddY male mice [1] = experiment: Peripheral nociception test (bradykinin-induced nociceptive flexion reaction), partial sciatic nerve ligation model; type: in vivo, mouse
Method: 17 of ddY male mice having a body weight of 13 to 15 g were used. The mice were anesthetized with pentobarbital, and skin of right hind leg of each mouse was dissected so that sciatic nerve was observed. The half of sciatic nerve fibers was bound with a suture for 9 mice among 17 mice, and only the dissection was performed for the remaining 8 animals (a control group). After the dissection site was sutured, the animals were left for 7 days (Xun Ye et al, Jpn. J. Pharmacol. 2000, Malmberg A B and Basbaum A I, Pain 1998). […] The group of mice of which sciatic nerves were bound was divided into two groups, and mice of one group were each administered with 5 μl (10 nmol) of nefiracetam and mice of the other group were each administered with 5 μl of physiological saline into spinal subarachnoid space. After the administration, the mice were each subcutaneously administered at a right hind leg footpad with physiological saline at 10 minutes and 15 minutes, 2 μl (0.1 fmol) of bradykinin at 20 minutes and 25 minutes, 2 μl (1 fmol) of bradykinin at 30 minutes and 35 minutes, 2 μl (10 fmol) of bradykinin at 40 minutes and 45 minutes, and 2 μl (100 fmol) of bradykinin at 50 minutes and 55 minutes after the administration. […]
In the mouse peripheral nociception test, nociceptive flexion reactions caused by chemical pain stimulus using bradykinin were evaluated. […]

ddY male mice [2] = experiment: Hargreaves test, diabetic neuropathic pain (streptozotocin mice); type: in vivo, mouse; details: mice with diabetes mellitus (streptozotocin); oral administration 3, 10 or 30 mg/kg
Method: 36 of ddY male mice having a body weight of 28 to 30 g were used. In the Hargreaves test, the mice were placed on a glass plate, and hind leg footpads of the mice were stimulated with radiant heat (combination type analgesia meter MODEL 336 (IITC INC., U.S.A.)) every 10 minutes. And the latent time until the beginning of an escape reaction was measured. The mice with diabetes mellitus were prepared by administering streptozotocin (200 mg/kg) dissolved in 0.1 N citrate buffer (pH 4.5) to caudal arteries, and the experiment was performed on the 7th day. […] 24 animals among the 36 animals were determined as mice with diabetes mellitus according to the method described above, and the remaining 12 mice were administered with 0.1 N citrate buffer at caudal arteries and used as a comparative control group (control group). The mice with diabetes mellitus were divided into 4 groups, and the threshold was measured twice. […] Then, mice of each group were each orally administered with 3 mg/kg, 10 mg/kg or 30 mg/kg of nefiracetam or physiological saline (10 ml/kg), and the latent time was repeatedly measured for 60 minutes with intervals of 10 minutes. The control group was divided into two groups, and a control value was measured as described above. […]

ddY male mice [3] = experiment: von Frey test, administration into spinal subarachnoid space, partial sciatic nerve ligation model; type: in vivo, mouse; details: for effect on escape reaction threshold (von Frey): control group subjected only to the dissection, administration into spinal subarachnoid space (10 nmol), compared to physiological saline; for effect on noxious response threshold (von Frey): neuropathic pain model (sciatic nerve bound), administration into spinal subarachnoid space, nefiracetam 1 and 10 nmol, morphine 10 nmol, oxiracetam 10 nmol
Method: 42 of ddY male mice having a body weight of 16 to 18 g were used. […] The mice were anesthetized with pentobarbital, and skin of right hind leg of each mouse was dissected so that sciatic nerve was observed. The half of sciatic nerve fibers was bound with a suture for 24 mice among 42 mice, and only the dissection was performed for the remaining 18 mice (a control group). After the dissection site was sutured, the animals were left for 7 days (Xun Ye et al, Jpn. J. Pharmacol. 2000, Malmberg A B and Basbaum A I, Pain 1998). […] The group of mice of which sciatic nerves were bound was divided into 4 groups, and the threshold was measured twice. The average of the values was used as a control value. Then, mice of each group were each administered with 5 μl (1 nmol) of nefiracetam, 5 μl (10 nmol) of nefiracetam, 5 μl (10 nmol) of morphine or 5 μl of physiological saline into spinal subarachnoid space. After the administration, the threshold was repeatedly measured for 60 minutes with intervals of 10 minutes. The group of mice that were subjected only to the dissection was divided into three groups, and a control value was measured in the same manner as described above. Then, mice of each group were each administered with 5 μl (10 nmol) of nefiracetam, 5 μl (10 nmol) of morphine or 5 μl of physiological saline into spinal subarachnoid space, and the threshold was measured in the same manner as described above.
In the same manner as in Example 2, 5 μl (10 nmol) of oxiracetam was administered and the threshold was measured.
In the von Frey test, the escape reactions caused by mechanical noxious stimulus, which was given for a time period of 60 minutes with intervals of 10 minutes, were evaluated as a threshold (g).

male mouse = details: p.o.; cited from earlier work
ddY male mice [4] = experiment: von Frey test, oral administration of nefiracetam, partial sciatic nerve ligation model; type: in vivo, mouse; details: oral administration 3, 10 or 30 mg/kg
Method: 36 of ddY male mice having a body weight of 16 to 18 g were used. In the von Frey test, the mice were placed on a mesh, and hind leg footpads of the mice were stimulated with a von Frey filament (digital type von Frey tester MODEL 1601 (IITC INC., U.S.A.)) every 15 minutes, and the threshold values observed at the beginning of an escape reaction were represented in a unit of gram. The mice were anesthetized with pentobarbital, and skin of right hind leg of each mouse was dissected so that sciatic nerve was observed. The half of sciatic nerve fibers was bound with a suture for 24 animals among the 36 animals, and only the dissection was performed for the remaining 12 animals (a sham group). After the dissection site was sutured, experiments were performed on the 7th day (Xun Ye et al, Jpn. J. Pharmacol. 2000, Malmberg A B and Basbaum A I, Pain 1998). […] The group of mice of which sciatic nerves were bound was divided into 4 groups, and the threshold was measured twice. […] Then, mice of each group were each orally administered with 3 mg/kg, 10 mg/kg or 30 mg/kg of nefiracetam or physiological saline (10 ml/kg), and the threshold was repeatedly measured for 90 minutes with intervals of 15 minutes. The mice of the control group (the sham group) that were subjected only to the dissection were divided into two groups, and a control value was measured in the same manner as described above. […]

Row | SMILES | effect on the reaction caused by bradykinin administered to footpad (ddY male mice [1]; control group subjected only to the dissection, without nervous disturbance, administered into spinal subarachnoid space, compared to physiological saline) | bradykinin sensitive response (analgesic effect) (ddY male mice [1]; neuropathic pain model (sciatic nerve bound), administration into spinal subarachnoid space, bradykinin 0.1 to 100 fmol) | suppression effect on diabetic neuropathic pain (Hargreaves latent time) (ddY male mice [2]) | effect on escape reaction threshold (von Frey) (ddY male mice [3]) | effect on noxious response threshold (von Frey) (ddY male mice [3]) | Acute toxicity (male mouse) | suppressing effect on neuropathic pain by oral administration (von Frey) (ddY male mice [4])
1 | Cc1cccc(C)c1NC(=O)CN1CCCC1=O [nefiracetam, N-(2,6-dimethylphenyl)-2-(2-oxo-1-pyrrolidinyl)acetamide] | not significant | completely suppressed | suppression effect | did not give significant effect | analgesic effect in a dose-dependent manner | 2,005 mg/kg | suppressing effect on neuropathic pain
2 | NC(=O)CN1CC(O)CC1=O (stereo not shown) [oxiracetam, 4-hydroxy-2-oxo-1-pyrrolidineacetamide] |  |  |  |  | analgesic effect substantially equivalent to that of nefiracetam |  | 
3 | CN1CC[C@]23c4c5ccc(O)c4O[C@H]2[C@@H](O)C=C[C@H]3[C@H]1C5 [morphine, reference compound] |  |  |  | did not give significant effect | no significant effect |  | 
